From patent publication US12491185B2, “Inhibitors of mPTP” (NRG Therapeutics Ltd, priority 2023, dated 2025)

Experiments:
mPTP [1] = assay: mPTP activity assay in isolated rat brain mitochondria; type: biochemical; conditions: fluorescence at 10 min timepoint
Description: MPTP activity was measured in brain mitochondria freshly isolated from female Sprague Dawley (250 to 300 gram) rats. Anaesthetised rats were perfused in-situ with −40 ml cold Dulbecco's Phosphate Buffered Saline (DPBS), then brains dissected and transferred into 30 ml Isolation Buffer (225 mM mannitol, 75 mM sucrose, 1 mM EGTA, adjusted to pH 7.4 with 1M NaOH). The brain was minced using tweezers and a scalpel into −5 mm pieces then transferred into a 50 ml Potterton Dounce homogenization tube on ice containing 10 ml ice-cold isolation buffer (as above with addition of Complete Protease inhibitor; 1 tablet per 50 ml buffer). Homogenisation was carried out using a teflon pestle at 1800 rpm. The slurry was centrifuged at 2000 g for 10 min at 4° C., then the supernatant centrifuged at 12,000 g for 9 min. The pellet was resuspended with a dounce homogeniser in isolation buffer as above but with the addition of 0.02% digitonin, centrifuged at 12,000 g for 11 min and finally resuspended in 5 ml modified isolation buffer (as above but with EGTA reduced to 0.1 mM).
Test compounds were prepared in 384 well polypropylene assay plates as described above for the liver mitochondria assay. A stock mitochondria/Fluo5N assay solution was prepared in 5.6 ml assay buffer (120 mM mannitol, 40 mM MOPS, 5 mM KH2PO4, 60 mM KCl, 10 mM pyruvate, 2 mM malate, 2 mM MgCl2, 20 μM ADP, 1.26 μM oligomycin A, adjusted to pH 7.4) supplemented with Fluo5N pentapotassium salt (2 μM) and 1 ml mitochondria suspension, then transferred (15 μl) into the assay plate containing test compounds and incubated for 10 min at RT. Assay plates were then transferred to a FLIPR Tetra plate reader (Molecular Devices). Dye fluorescence was then measured every 3 sec for a total of 10 min.

mPTP [2] = assay: mPTP activity (Ca2+ retention) assay in isolated rat liver mitochondria; type: biochemical; conditions: examples tested by different contract research organisations, believed comparable
Summary of the method: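 pIC50 was taken from Fluo5N fluorescence at 10 min after a 75 μM CaCl2 bolus, scaled between DMSO (0%) and 5 μM cyclosporin A (100%). Compounds, ten half-log concentrations from 30 μM to 1 nM final, sat 10 min at RT with fresh female Sprague Dawley rat liver mitochondria energized by succinate plus rotenone.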

mPTP Rat brain pIC50 (mPTP [1]) | mPTP Rat liver pIC50 (mPTP [2]) | SMILES
7.83 | 6.75 | CC(NC(=O)c1nn(C)c(=O)[nH]1)C1(Cc2ccccc2)CCC1 (single isomer, unassigned) [Example 24A, N-(1-(1-benzylcyclobutyl)ethyl)-1-methyl-5-oxo-4,5-dihydro-1H-1,2,4-triazole-3-carboxamide]
5.49 | <4.52 | CC(NC(=O)c1nn(C)c(=O)[nH]1)C1(Cc2ccccc2)CCC1 (single isomer, unassigned) [Example 24B, N-(1-(1-benzylcyclobutyl)ethyl)-1-methyl-5-oxo-4,5-dihydro-1H-1,2,4-triazole-3-carboxamide]
7.62 | 6.56 | CC(NC(=O)c1nn(C)c(=O)[nH]1)C(C)(C)Cc1ccccc1 (single isomer, unassigned) [Example 39B, N-(3,3-dimethyl-4-phenylbutan-2-yl)-1-methyl-5-oxo-4,5-dihydro-1H-1,2,4-triazole-3-carboxamide]
7.68 | 6.97 | CC(C)[C@H](CNC(=O)c1nn(C)c(=O)[nH]1)Cc1ccccc1 (single isomer, unassigned) [Example 46B]
5.68 | 5.04 | CC[C@@H](CNC(=O)c1nn(C)c(=O)[nH]1)Cc1ccccc1 (single isomer, unassigned) [Example 54a]
7.94 | 6.82 | CC[C@H](CNC(=O)c1nn(C)c(=O)[nH]1)Cc1ccccc1 (single isomer, unassigned) [Example 54b]
7.60 | 6.90 | CC[C@@H](Cc1ccc(F)cc1F)C(C)NC(=O)c1nn(C)c(=O)[nH]1 (single isomer, unassigned) [Example 223]
5.04 | 4.52 | CC[C@@H](Cc1ccc(F)cc1F)C(C)NC(=O)c1nn(C)c(=O)[nH]1 (single isomer, unassigned) [Example 224]
6.66 | 5.47 | CC(c1ccc(F)cc1F)[C@@H](CNC(=O)c1nccc(=O)[nH]1)C1CC1 (single isomer, unassigned) [Example 225]
4.82 | 4.52 | CC(c1ccc(F)cc1F)[C@@H](CNC(=O)c1nccc(=O)[nH]1)C1CC1 (single isomer, unassigned) [Example 226]
7.76 | 6.21 | Cn1nc(C(=O)NCC(C)(Cc2c(F)cc(F)cc2F)C2CC2)[nH]c1=O (single isomer, unassigned) [Example 227, N-[2-cyclopropyl-2-methyl-3-(2,4,6-trifluorophenyl)propyl]-1-methyl-5-oxo-4H-1,2,4-triazole-3-carboxamide]
7.12 | 6.16 | Cn1nc(C(=O)NCC(C)(Cc2c(F)cc(F)cc2F)C2CC2)[nH]c1=O (single isomer, unassigned) [Example 228, N-[2-cyclopropyl-2-methyl-3-(2,4,6-trifluorophenyl)propyl]-1-methyl-5-oxo-4H-1,2,4-triazole-3-carboxamide]
6.83 | 6.32 | Cn1nc(C(=O)NCC2(Cc3ccc(F)cc3F)CCCO2)[nH]c1=O (single isomer, unassigned) [Example 229]
6.40 | 6.18 | Cn1nc(C(=O)NCC2(Cc3ccc(F)cc3F)CCCO2)[nH]c1=O (single isomer, unassigned) [Example 230]
7.37 | 6.61 | Cn1nc(C(=O)NCC2(Cc3ccc(F)cc3F)CC23CC3)[nH]c1=O (single isomer, unassigned) [Example 231, N-((1-(2,4-difluorobenzyl)spiro[2.2]pentan-1-yl)methyl)-1-methyl-5-oxo-4,5-dihydro-1H-1,2,4-triazole-3-carboxamide]
7.56 | 6.65 | Cn1nc(C(=O)NCC2(Cc3ccc(F)cc3F)CC23CC3)[nH]c1=O (single isomer, unassigned) [Example 232, N-((1-(2,4-difluorobenzyl)spiro[2.2]pentan-1-yl)methyl)-1-methyl-5-oxo-4,5-dihydro-1H-1,2,4-triazole-3-carboxamide]
7.10 | 5.77 | O=C(NCC1(Cc2ccc(F)cc2F)CC12CC2)c1noc(=O)[nH]1 (single isomer, unassigned) [Example 233]
– | 5.42 | CC(c1ccc(F)cc1F)[C@@H](CNC(=O)c1nccc(=O)[nH]1)C1CC1 (stereo partly drawn) [Example 188, N-[(2S)-2-Cyclopropyl-3-(2,4-difluorophenyl)butyl]-4-oxo-3H-pyrimidine-2-carboxamide]
– | 5.26 | O=C(NC[C@H](Cc1c(F)cccc1F)C1CC1)c1nccc(=O)[nH]1 [Example 189]
– | 5.72 | O=C(NC[C@H](Cc1ccc(F)cc1F)C1CC1)c1ncc(F)c(=O)[nH]1 [Example 192]

mPTP Rat brain pIC50 (mPTP [1]) | mPTP Rat liver pIC50 (mPTP [2]) | SMILES
– | 6.36 | Cn1nc(C(=O)NCC(Cc2ccc(F)cc2Cl)C2CC2)[nH]c1=O (centres unmarked) [Example 193, N-(3-(2-chloro-4-fluorophenyl)-2-cyclopropylpropyl)-1-methyl-5-oxo-4,5-dihydro-1H-1,2,4-triazole-3-carboxamide]
– | 6.56 | CC(NC(=O)c1nn(C)c(=O)[nH]1)[C@H](Cc1ccc(F)cc1F)C1CC1 (some centres unmarked) [Example 196]
– | <4.57 | Cn1nc(C(=O)NCC2(Cc3ccc(F)cc3F)CCC(F)(F)CC2)[nH]c1=O [Example 197]
– | 5.95 | O=C(NCC1(Cc2ccc(F)cc2F)CCC1)c1nncc(=O)[nH]1 [Example 198, N-((1-(2,4-difluorobenzyl)cyclobutyl)methyl)-5-oxo-4,5-dihydro-1,2,4-triazine-3-carboxamide]
– | 6.55 | CCC(CC)(CNC(=O)c1nn(C)c(=O)[nH]1)Cc1ccc(F)cc1F [Example 199]
– | <4.57 | Cc1cc(=O)[nH]c(C(=O)NCC2(Cc3ccc(F)cc3F)CCC2)n1 [Example 200]
– | <4.57 | O=C(NCC1(Cc2ccc(F)cc2F)CCC1)c1cc(=O)[nH]s1 [Example 201]
– | 5.61 | O=C(NCC1(Cc2ccc(F)c(F)c2)CCC1)c1noc(=O)[nH]1 [Example 202, N-((1-(3,4-difluorobenzyl)cyclobutyl)methyl)-5-oxo-4,5-dihydro-1,2,4-oxadiazole-3-carboxamide]
– | 6.53 | O=C(NC[C@H](Cc1ccc(F)cc1F)C1CC1)c1noc(=O)[nH]1 [Example 204]
– | 5.24 | COCc1nnc(C(=O)NCC2(Cc3ccc(F)cc3F)CCC2)[nH]1 [Example 206]
– | <4.57 | Cn1nc(C(=O)NCC2(Cc3ccc(F)cc3F)CCC2)nc1CO [Example 208]
– | 5.96 | CC[C@H](CNC(=O)c1noc(=O)[nH]1)Cc1ccc(F)cc1F [Example 209]
– | 6.05 | O=C(NCC1(Cc2ccc(F)cc2F)CCC1)c1n[nH]c(=O)o1 [Example 211]
– | 6.18 | Cn1nc(C(=O)NC[C@H](Cc2c(F)cccc2F)C2CC2)[nH]c1=O [Example 212]
– | <4.57 | O=C(NCC1(Cc2ccc(F)cc2F)CCC1)c1cnc[nH]c1=O [Example 213, N-((1-(2,4-difluorobenzyl)cyclobutyl)methyl)-6-oxo-1,6-dihydropyrimidine-5-carboxamide]
– | <4.52 | O=C(NCC(Cc1ccc(F)cc1Cl)C1CC1)c1nccc(=O)[nH]1 (centres unmarked) [Example 214]
– | 5.56 | Cn1nc(C(=O)NCC(Cc2c(F)cc(F)cc2Cl)C2CC2)[nH]c1=O (centres unmarked) [Example 220]
– | 6.11 | Cn1nc(C(=O)NCC(Cc2ccc(Cl)cc2F)C2CC2)[nH]c1=O (centres unmarked) [Example 222]
– | <4.57 | Cn1nc(C(=O)NCC2Cc3ccccc3O2)[nH]c1=O (centres unmarked) [Reference Example 114, N-((2,3-dihydrobenzofuran-2-yl)methyl)-1-methyl-5-oxo-4,5-dihydro-1H-1,2,4-triazole-3-carboxamide]

SMILES | mPTP Rat brain pIC50 (mPTP [1]) | mPTP Rat liver pIC50 (mPTP [2])
O=C(NCC1(Cc2ccc(F)cc2F)CCC1)c1cncc(=O)[nH]1 [Example 16, N-((1-(2,4-difluorobenzyl)cyclobutyl)methyl)-6-oxo-1,6-dihydropyrazine-2-carboxamide] | 7.35 | –
Cn1nc(C(=O)NCC(C)(Cc2ccc(F)cc2F)C2CC2)[nH]c1=O (centres unmarked) [Example 210, N-(2-cyclopropyl-3-(2,4-difluorophenyl)-2-methylpropyl)-1-methyl-5-oxo-4,5-dihydro-1H-1,2,4-triazole-3-carboxamide] | – | 6.82
O=C(NCC1(Cc2ccc(F)cc2F)CC(F)C1)c1nccc(=O)[nH]1 (centres unmarked) [Example 215] | – | 6.34
